Results: publication PMC6204753, “Non-native autoinducer analogs capable of modulating the SdiA quorum sensing receptor in Salmonella enterica serovar Typhimurium” (Beilstein Journal of Organic Chemistry, 2018)
Where two headings read alike, the source gives them in different places.

Assays:
SdiA [1] = target: T1, SdiA (Salmonella enterica subsp. enterica serovar Typhimurium, UniProt O66040); experiment: S. Typhimurium-pJNS25 SdiA reporter, competitive antagonism against 10 nM L-OOHL; format: cell-based; conditions: for inhibition at 1 µM: read-out: Antagonism 1 μM Inhibition (%); for inhibition at 100 µM: read-out: Antagonism 100 μM Inhibition (%); for Emax: maximal inhibition, 100% minus lowest % activity in presence of 10 nM L-OOHL (2), read-out: inhibition (%)
T1 sequence (O66040 entry or part of it): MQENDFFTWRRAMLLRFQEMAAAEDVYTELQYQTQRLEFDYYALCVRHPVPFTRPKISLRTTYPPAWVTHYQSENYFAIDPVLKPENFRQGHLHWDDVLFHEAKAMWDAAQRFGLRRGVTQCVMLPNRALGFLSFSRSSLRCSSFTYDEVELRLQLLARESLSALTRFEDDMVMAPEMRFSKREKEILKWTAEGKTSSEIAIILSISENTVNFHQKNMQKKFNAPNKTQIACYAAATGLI
Excerpt: (§1) Biological assays for SdiA activity. Cell-based reporter strains that rely on detecting the transcriptional activity of LuxR-type receptors are commonly used to assess the activity of exogenous ligands. We used the S. Typhimurium-pJNS25 reporter strain constructed by Smith and Ahmer and also used by Janssens et al. to examine SdiA activity. This strain naturally produces SdiA and contains a reporter plasmid with the promoter region for srgE fused to the luxABCDE operon of V. fischeri (see Experimental section for details of all strains and plasmids). SdiA activity is thus reported by the production of luciferase and resulting bioluminescence. We also prepared an SdiA reporter in E. coli (JLD271-pJN105SE-pSC11SE) to examine S. Typhimurium SdiA activity in an alternate background and with a different reporter gene output. […] This reporter construct uses an arabinose inducible promoter to produce S. Typhimurium SdiA and the promoter region for srgE fused to lacZ to report SdiA activity. SdiA activity is then measured using standard β-galactosidase assays. In both reporter strains, signal was normalized to the difference between the positive control (10 μM OOHL) and the negative control (1% DMSO; no compound).
(§2) Salmonella SdiA reporter assay. S. Typhimurium-pJNS25 was grown 16–18 h overnight in LB, diluted 1:100 in fresh LB medium, and then incubated for 6 h at 37 °C with shaking at 200 rpm in the presence of compounds (1% DMSO). […] All compounds were screened at 100 μM and 1 μM in triplicate in agonism and antagonism assays. […] Dose–response analyses were performed by preparing dilutions of compounds in DMSO and testing each concentration in the agonism or antagonism assays. Competition dose–response assays (data in Figure 5) were performed in the same manner as the antagonism assays, except instead of OOHL being added to the subculture, the antagonist being tested was added. Non-linear regression curve fits were generated using GraphPad Prism software (version 6) using variable slope (four parameter) dose–response analysis.

SdiA [2] = target: T1, SdiA; experiment: S. Typhimurium-pJNS25 SdiA reporter, agonism (luminescence); format: cell-based; conditions: for EC50: agonism dose–response; for Emax: read-out: activation (%); for fold increase: potency of thiolactone over corresponding lactone (EC50 ratio)
Excerpt: as §1, §2

[3] = 1 μM compound, average ± STD, change in activity from 10 nM 2 (OOHL)
[4] = 100 μM compound, average ± STD, change in activity from 10 nM 2 (OOHL)
[5] = maximal activity (efficacy) from agonism dose–response, 10 μM OOHL = 100%, DMSO = 0%
[6] = maximal activation of the antagonists (partial agonism), Table 3

Row | SMILES | Antagonism 1 μM Inhibition (%) (SdiA [1]; [3]) | Antagonism 100 μM Inhibition (%) (SdiA [1]; [4]) | other results
1 | O=C(Cc1cccc(Cl)c1)N[C@H]1CCOC1=O [C6] | – | – | inhibition at 1 µM (SdiA [1]; [3]): 9 ± 16%; inhibition at 100 µM (SdiA [1]; [4]): -20 ± 6%; EC50 (SdiA [2]; read-out: EC50): 51.9 nM; Emax (SdiA [2]; [5]): 95%
2 | O=C(Cc1ccc(-c2ccccc2)cc1)N[C@H]1CCOC1=O [C18] | – | – | inhibition at 1 µM (SdiA [1]; [3]): 11 ± 3%; inhibition at 100 µM (SdiA [1]; [4]): 52 ± 10%; Emax (SdiA [1]): 40%; Emax (SdiA [2]; [6]): 48%
3 | O=C(COc1ccc(I)cc1)N[C@H]1CCOC1=O [E22] | – | – | inhibition at 1 µM (SdiA [1]; [3]): -5 ± 11%; inhibition at 100 µM (SdiA [1]; [4]): -15 ± 8%; EC50 (SdiA [2]; read-out: EC50): 10.4 nM; Emax (SdiA [2]; [5]): 108%
4 | O=C(Cc1cccc([N+](=O)[O-])c1)N[C@H]1CCOC1=O [C14] | – | – | inhibition at 1 µM (SdiA [1]; [3]): 0%; inhibition at 100 µM (SdiA [1]; [4]): -17 ± 9%; EC50 (SdiA [2]; read-out: EC50): 28.3 nM
5 | O=C(Cc1ccc(Br)cc1)N[C@@H]1CCOC1=O [B4] | – | – | inhibition at 1 µM (SdiA [1]; [3]): 41 ± 15%; inhibition at 100 µM (SdiA [1]; [4]): 16 ± 11%; Emax (SdiA [1]): 50%; Emax (SdiA [2]; [6]): 52%
6 | O=C(CC1CCCCC1)N[C@H]1CCOC1=O [S7] | – | – | inhibition at 1 µM (SdiA [1]; [3]): 7 ± 14%; inhibition at 100 µM (SdiA [1]; [4]): 1 ± 7%; EC50 (SdiA [2]; read-out: EC50): 106 nM; Emax (SdiA [2]; [5]): 89%
7 | O=C(CCC1CCCCC1)N[C@H]1CCOC1=O [B11] | – | – | inhibition at 1 µM (SdiA [1]; [3]): 6 ± 5%; inhibition at 100 µM (SdiA [1]; [4]): 8 ± 14%; EC50 (SdiA [2]; read-out: EC50): 50.1 nM; Emax (SdiA [2]; [5]): 93%
8 | COc1ccc(CC(=O)N[C@H]2CCSC2=O)cc1 [F12] | – | – | inhibition at 1 µM (SdiA [1]; [3]): -13 ± 10%; inhibition at 100 µM (SdiA [1]; [4]): -21 ± 8%; EC50 (SdiA [2]; read-out: EC50): 38.8 nM; Emax (SdiA [2]; [5]): 84%; fold increase (SdiA [2]): 6.49
9 | O=C(Oc1c(Br)cc(Br)cc1CNC(=O)c1ccccc1[N+](=O)[O-])c1ccccc1Cl [19R, reference compound] | – | – | inhibition at 1 µM (SdiA [1]; [3]): 43 ± 10%; inhibition at 100 µM (SdiA [1]; [4]): 38 ± 11%; Emax (SdiA [1]): 44%; Emax (SdiA [2]; [6]): 40%
10 | CCCCCCC(CCCC)C(=O)N[C@H]1CCOC1=O (some centres unmarked) [S2] | – | – | inhibition at 1 µM (SdiA [1]; [3]): 48 ± 3%; inhibition at 100 µM (SdiA [1]; [4]): 2 ± 11%; Emax (SdiA [1]): 32%; Emax (SdiA [2]; [6]): 63%
11 | CCCCCCCC(=O)N[C@H]1CCSC1=O [F5] | – | – | inhibition at 1 µM (SdiA [1]; [3]): 3 ± 6%; inhibition at 100 µM (SdiA [1]; [4]): 0%; EC50 (SdiA [2]; read-out: EC50): 2.28 nM; Emax (SdiA [2]; [5]): 79%; fold increase (SdiA [2]): 8.12
12 | CCOC(=O)CNC(=O)Cc1ccc(Br)cc1 [F39] | – | – | inhibition at 1 µM (SdiA [1]; [3]): 27 ± 9%; inhibition at 100 µM (SdiA [1]; [4]): 53 ± 11%; Emax (SdiA [1]): 55%; Emax (SdiA [2]; [6]): 50%
13 | O=C(Cc1ccc(I)cc1)N[C@H]1CCOC1=O [C10] | – | – | inhibition at 1 µM (SdiA [1]): 28 ± 6%; inhibition at 100 µM (SdiA [1]): 27 ± 13%; EC50 (SdiA [2]): 47.2 nM; Emax (SdiA [2]): 67%
14 | Cc1ccc(OCC(=O)N[C@H]2CCOC2=O)cc1 [E15] | – | – | inhibition at 1 µM (SdiA [1]; [3]): -3 ± 5%; inhibition at 100 µM (SdiA [1]; [4]): -17 ± 7%; EC50 (SdiA [2]; read-out: EC50): 33 nM; Emax (SdiA [2]; [5]): 98%
15 | CCCCCCCCCC(=O)CC(=O)Nc1cccc(OC)c1 [compound 14, reference compound] | 22 ± 19 | 12 ± 8 | –
16 | O=C(Cc1cccc([N+](=O)[O-])c1)Nc1ccccc1 [F25] | 20 ± 4 | -2 ± 14 | –
17 | O=C(Cc1ccccc1)N[C@H]1CCSC1=O [F9] | -1 ± 4 | -13 ± 1 | –
18 | CC(C)(C)OC(=O)Nc1ccc(CC(=O)N[C@H]2CCOC2=O)cc1 [C22] | -9 ± 2 | 6 ± 6 | –
19 | O=C(CCc1ccc(I)cc1)N[C@H]1CCOC1=O [E32] | 19 ± 14 | 24 ± 13 | –
20 | O=C(CCCc1ccccc1)N[C@H]1CCOC1=O [compound 6, reference compound] | 31 ± 6 | 21 ± 10 | –
21 | Cc1ccc(C(=O)N[C@H]2CCOC2=O)cc1 [Q8] | 17 ± 3 | 11 ± 3 | –
22 | COc1cccc(CC(=O)N[C@H]2CCOC2=O)c1 [E2] | -5 ± 1 | -8 ± 14 | –
23 | Cc1nc(-c2ccccc2)oc1CC(=O)N[C@H]1CCOC1=O [D4] | 28 ± 13 | -6 ± 4 | –

Row | SMILES | Antagonism 1 μM Inhibition (%) (SdiA [1]; [3]) | Antagonism 100 μM Inhibition (%) (SdiA [1]; [4]) | other results
24 | CCCC(=O)CC(=O)N[C@H]1CCOC1=O [compound 3, reference compound] | 6 ± 16 | 20 ± 2 | –
25 | CCCCCCCCCCCC(=O)N[C@H]1CCSC1=O [F4] | -2 ± 11 | 2 ± 5 | –
26 | O=C(CCCc1ccccc1)NC1CCOC1=O (centres unmarked) [B3] | 34 ± 5 | 16 ± 3 | –
27 | CCCCCCCCc1ccc(C(=O)N[C@H]2CCOC2=O)cc1 [D13] | 17 ± 7 | 23 ± 7 | –
28 | O=C(Cc1ccccc1F)N[C@H]1CCOC1=O [C4] | 3 ± 6 | -31 ± 10 | –
29 | N#Cc1ccc(CC(=O)N[C@H]2CCOC2=O)cc1 [E4] | 12 ± 6 | -17 ± 18 | –
30 | COc1cc(C(C)=O)ccc1OCC(=O)N[C@H]1CCOC1=O [D16] | 19 ± 6 | 3 ± 6 | –
31 | O=C(N[C@H]1CCOC1=O)c1ccc(I)cc1 [Q5] | 28 ± 10 | -14 ± 10 | –
32 | O=C(CCCOc1ccc(Cl)cc1)N[C@H]1CCOC1=O [compound 10, reference compound] | 9 ± 12 | 5 ± 15 | –
33 | COc1ccc(C(=O)N[C@H]2CCOC2=O)cc1 [Q6] | 26 ± 18 | -6 ± 14 | –
34 | O=C(N[C@H]1CCOC1=O)c1ccc(F)cc1 [Q3] | 34 ± 2 | -26 ± 17 | –
35 | COc1ccccc1C1CCN(c2ccc(/C=C/C(=O)N[C@H]3CCOC3=O)cc2[N+](=O)[O-])CC1 [D18] | 18 ± 8 | 32 ± 5 | –
36 | O=C(CCc1c[nH]c2ccccc12)N[C@H]1CCOC1=O [B14] | 10 ± 2 | 18 ± 5 | –
37 | O=C(Cc1ccccc1I)N[C@H]1CCOC1=O [C12] | 9 ± 13 | -24 ± 12 | –
38 | O=C(Cc1ccc(O)cc1)N[C@H]1CCOC1=O [C23] | 6 ± 2 | 16 ± 3 | –
39 | O=C(CC(O)Cc1cccc(I)c1)N[C@H]1CCOC1=O (some centres unmarked) [H15] | 6 ± 14 | 19 ± 11 | –
40 | O=C(CCc1ccc(Br)cc1)N[C@H]1CCOC1=O [compound 8, reference compound] | 15 ± 8 | 4 ± 3 | –
41 | CCCCCCCCCCCCCC(=O)N[C@H]1CCOC1=O [H26] | 5 ± 14 | 0 ± 8 | SdiA antagonism (in words) (SdiA [1]; S. Typhimurium reporter): failed to inhibit SdiA
42 | O=C(CCc1ccc(C(F)(F)F)cc1)N[C@H]1CCOC1=O [compound 9, reference compound] | 32 ± 10 | 11 ± 16 | –
43 | O=C(Cc1cccc([N+](=O)[O-])c1)NC1CCCC1 [F18] | 4 ± 6 | 15 ± 3 | –
44 | O=C(Cc1cccc(C(F)(F)F)c1)N[C@H]1CCOC1=O [E3] | -14 ± 16 | 5 ± 8 | –
45 | CCCCCCCCCC(=O)NC1CCCC1 [compound 17, reference compound] | 26 ± 12 | 28 ± 5 | –
46 | O=C(N[C@H]1CCOC1=O)c1ccc([N+](=O)[O-])cc1 [Q7] | 28 ± 7 | 20 ± 9 | –
